Experimental findings from patent US5756467A, “Adipocyte differentiation inhibiting peptide and adipocyte differentiation inhibiting agent using the peptide as active component thereof” (Itoham Foods Inc., priority 1993, dated 1998) are described below.

Residues, ends and D or L forms follow the SMILES beside them.

In one experiment the test system is adipose tissue. The experiment is described as follows: Effect of globin proteolysate on increase of adipose tissue, mice on 50% fat feed (Test 4). Type of experiment: in vivo. The conditions noted are these: 50% fat feed + Clenbuterol 2 ppm. An excerpt:
Then, mice were allowed to ingest freely 50% fat feed and then tested for weight of adipose tissue and cell number.

Experiment [1] deals with cells in the subcutaneous adipose tissue. In words: Effect of globin proteolysate on distribution of adipose tissue cells (Test 4). It counts as in vivo, mice. The conditions noted are these: 50% fat feed + Clenbuterol 2 ppm. From the text: The cell number in adipose tissues shown in Table 7 represent the values including adipocytes, preadipocytes, fibroblasts, blood vessel cells, etc. The cells in the subcutaneous adipose tissue were investigated in detail as sorted into matured adipocytes, immatured adipocytes, and interstitial cells (stroma).
It is clearly noted from Table 8 showing the results of the investigation that particularly the differentiation of fibro-blasts in the group of interstitial cells represented as stromas to preadipocytes was repressed.

For another experiment, the system named is Swiss mouse 3T3-L1 cells. In words: Adipocyte differentiation of preadipocytes in vitro, GPDH activity as marker enzyme (Tests 1 and 2). The conditions noted are these: for action to inhibit the GPDH activity: treatment before and after the induction of differentiation, depending on the peptide concentration. It counts as cell-based. How it is done: (1) Treatment before induction of differentiation
Swiss mouse 3T3-L1 cells were inoculated at a density of about 3×10^4 cells/ml to a cell culturing dish. A Dulbecco modified Eagle culture medium (DMEM) containing bovine fetal blood serum incorporated therein at a concentration of 10% was used as the culture medium. The culture was invariably carried out in an ambience of 5% CO2 and 95% of air at 37° C.
After a monolayer of cells was formed, the cell layer surface was washed with a phosphate buffer physiological salt solution (PBS). In the presence of culture media containing the CD and the fraction A respectively at concentration of 0, 2, 4, and 8 mg/ml and at concentration of 0, 20, 40, and 80 μg/ml, the cell layer was cultured. Then, the cell layer surface was washed with PBS and the cell layer was cultured for two days in the presence of a culture medium incorporating therein the differentiation inducing substance (0.25 μM of dexamethasone, […] of a-methyl-3-isobutyl xanthine, and 10 μg/ml insulin).
Subsequently, the cell layer was deprived of the culture medium containing the differentiation-inducing substance. The cell layer surface was washed likewise with PBS and the cell layer was cultured for about one week in the presence of a culture medium incorporating insulin therein at a concentration of 10 μg/ml.
The effect of the fraction A on the adipocyte differentiation was rated by determining the glycerol-3-phosphate dehydrogenase activity (GPDH) by the well-known method as a marker enzyme.
(2) Treatment after induction of differentiation
Swiss mouse 3T3-L1 cells were cultured by the same method as in (1) mentioned above and then tested for GPDH activity, providing that the culture medium containing insulin at a concentration of 10 μg/ml was added to the GD and the fraction A after the removal of the culture medium containing the differentiation inducing substance.
[Test 2] Differentiation inhibiting effect of adipocyte differentiation inhibiting peptide (chemical synthesis product) on preadipocytes (in vitro)
The effects of the chemically synthesized H-Val-Thr-Leu-OH and the H-Val-Tyr-Pro-OH obtained by the same method as in Example 5 on Swiss mouse 3T3-L1 cells in were investigated by the same method as in Example 5. […]

Experiment [2] concerns adipocytes in adipose tissue. In words: Effect of synthetic peptides on increase of cell number in murine adipose tissue (Test 3). Type of experiment: in vivo, mice. As to conditions: 50% fat meal + 20 ppm peptide. The procedure:
[Test 3] Effect of adipocyte differentiation inhibiting peptide (chemical synthesis product) (in vivo)
The two adipocyte differentiation inhibiting peptides of the invention, Val-Thr-Leu and Val-Tyr-Pro, synthesized by the method shown in Example 5 were tested for effect on increase of adipocytes (in vivo). The test was performed by the same method as in Test 1 using globin proteolysate.

Where [3] appears, read: Peptide 0.2 mg/ml, treatment after induction of differentiation (48 hours).
Where [4] appears, read: Peptide 0.2 mg/ml, treatment before induction of differentiation (48 hours).
Setting [5] is: Peptide 0.4 mg/ml, treatment after induction of differentiation (48 hours).
Setting [6] is: Peptide 0.4 mg/ml, treatment before induction of differentiation (48 hours).
[7] abbreviates: Peptide 0.8 mg/ml, treatment after induction of differentiation (48 hours).
Setting [8] is: Peptide 0.8 mg/ml, treatment before induction of differentiation (48 hours).

For the molecule `CC(C)(C)NCC(O)c1cc(Cl)c(N)c(Cl)c1` (centres unmarked) [Clenbuterol], in the experiment on adipose tissue, the “Number of adipocytes, Epididymal adipose tissue” value amounted to 79 ± 7 DNA μg/adipose tissue; the “Number of adipocytes, Retroperitoneal adipose tissue” value was 18 ± 2 DNA μg/adipose tissue; the “Number of adipocytes, Subcutaneous adipose tissue” value is given as 96 ± 8 DNA μg/adipose tissue; the “weight of adipose tissue, Epididymal adipose tissue” value was 0.97 ± .11 g. In the experiment with adipose tissue, the “weight of adipose tissue, Retroperitoneal adipose tissue” value is on record as 0.28 ± .04 g and the “weight of adipose tissue, Subcutaneous adipose tissue” value was 1.49 ± .22 g. Further, in experiment [1], the Adipocyte is 30, the Preadipoytes amounted to 30 and the Stroma amounted to 36.

Regarding `CC(C)C[C@H](NC(=O)[C@@H](NC(=O)[C@@H](N)C(C)C)[C@@H](C)O)C(=O)O` [Val-Thr-Leu, H-Val-Thr-Leu-OH] (H-Val-Thr-Leu-OH), the GDPH activity in the experiment on Swiss mouse 3T3-L1 cells (setting [3]) is on record as 463.2 ± 29.7 mU/mg protein; in the experiment with Swiss mouse 3T3-L1 cells (setting [4]) it was 102.5 ± 19.6 mU/mg protein; in the experiment with Swiss mouse 3T3-L1 cells (setting [5]) it was 281.1 ± 19.6 mU/mg protein; with Swiss mouse 3T3-L1 cells (setting [6]), 8.1 ± 1.6 mU/mg protein; in the experiment with Swiss mouse 3T3-L1 cells (setting [7]) it was 13.8 ± 5.4 mU/mg protein; with Swiss mouse 3T3-L1 cells (setting [8]), 6.3 ± 1.9 mU/mg protein. Further, the “Ratio of Inhibition” value with Swiss mouse 3T3-L1 cells (setting [3]) is reported as 35.5%; in the experiment with Swiss mouse 3T3-L1 cells (setting [4]), 82.1%; in the experiment with Swiss mouse 3T3-L1 cells (setting [5]), 60.8%; in the experiment on Swiss mouse 3T3-L1 cells (setting [6]), 98.6%; in the experiment with Swiss mouse 3T3-L1 cells (setting [7]), 98.1%; with Swiss mouse 3T3-L1 cells (setting [8]), 98.9%. In addition, the “action to inhibit the GPDH activity” value in the experiment with Swiss mouse 3T3-L1 cells is listed as “conspicuous action to inhibit the GPDH activity”. The “Number of adipocytes, Epididymal adipose tissue” value in experiment [2] was 88 DNA μg/adipose tissue. The “Number of adipocytes, Retroperitoneal adipose tissue” value in experiment [2] is 23 DNA μg/adipose tissue. In experiment [2], the “Number of adipocytes, Subcutaneous adipose tissue” value worked out at 102 DNA μg/adipose tissue.

As to `CC(C)[C@H](N)C(=O)N[C@@H](Cc1ccc(O)cc1)C(=O)N1CCC[C@H]1C(=O)O` [Val-Tyr-Pro, H-Val-Tyr-Pro-OH] (H-Val-Tyr-Pro-OH), the GDPH activity stood at 412.6 ± 20.3 mU/mg protein in the experiment on Swiss mouse 3T3-L1 cells (setting [3]); 106.7 ± 28.1 mU/mg protein in the experiment with Swiss mouse 3T3-L1 cells (setting [4]); 197.3 ± 27.5 mU/mg protein in the experiment with Swiss mouse 3T3-L1 cells (setting [5]); 10.6 ± 2.3 mU/mg protein with Swiss mouse 3T3-L1 cells (setting [6]); 14.7 ± 2.7 mU/mg protein with Swiss mouse 3T3-L1 cells (setting [7]); 7.8 ± 1.5 mU/mg protein with Swiss mouse 3T3-L1 cells (setting [8]). Besides, the “Ratio of Inhibition” value is on record as 42.5% in the experiment on Swiss mouse 3T3-L1 cells (setting [3]); 83.0% in the experiment with Swiss mouse 3T3-L1 cells (setting [4]); 72.5% with Swiss mouse 3T3-L1 cells (setting [5]); 98.5% in the experiment with Swiss mouse 3T3-L1 cells (setting [6]); 98.0% with Swiss mouse 3T3-L1 cells (setting [7]); 98.7% in the experiment with Swiss mouse 3T3-L1 cells (setting [8]). Further, in the experiment with Swiss mouse 3T3-L1 cells, the “action to inhibit the GPDH activity” value is “conspicuous action to inhibit the GPDH activity”. The “Number of adipocytes, Epididymal adipose tissue” value in experiment [2] is given as 102 DNA μg/adipose tissue. Also, the “Number of adipocytes, Retroperitoneal adipose tissue” value in experiment [2] worked out at 27 DNA μg/adipose tissue. In experiment [2], the “Number of adipocytes, Subcutaneous adipose tissue” value is recorded as 125 DNA μg/adipose tissue.
